The values below come from the NIST ThermoML archive (doi:10.1016/j.jct.2014.06.021).

Data set [1] in a line: Molar enthalpy of transition or fusion. Conditions: Crystal; DSC.
The conditions of data set [2]: Crystal; DTA.

± gives the expanded uncertainty stated by the source.

In the case of `O=P(Oc1ccccc1)(Oc1ccccc1)N1CCN(P(=O)(Oc2ccccc2)Oc2ccccc2)CC1` [tetraphenyl piperazine-1,4-diylbis(phosphonate)], the “Molar enthalpy of transition or fusion” value in data set [1] turned out to be 14.3 ± 0.359 kcal/mol. In addition, in data set [2], the Normal melting temperature was 184.67 ± 0.53 °C.
